Reference: US20240000847A1, “METHODS” (bluebird bio, Inc., priority 2020, published 2024)
Read-outs that look alike come from different tables or passages of the source.

Experiments:
[1] = tested on: bone marrow macrophages; conditions: mice; for F4/80+ macrophage staining in bone marrow smears (pathology): Ctx dosed at 2×100 mg/kg, FIG. 2B, 100 mg/kg; for F4/80+ macrophage staining in bone marrow smears (pathology) / activation status of macrophages recruited to the bone marrow (FcγRI signal): compared to vehicle; for activation status of macrophages recruited to the bone marrow (FcγRI signal): FIG. 2A bottom panel
Description: Immunocompetent mice (C57Bl/6 or Balb/C) were dosed with vehicle of one of four different cyclophosphamide (Cytoxan) regimens including: one dose of 50 mg/kg, one dose of 100 mg/kg, two doses of 50 mg/kg approximately 48 hours apart, and two doses of 100 mg/kg approximately 48 hours apart. Three days following the final dose of the regimen, mouse bone marrow was evaluated for macrophage number and phenotype of. Flow cytometry was used to characterize bone marrow macrophages. Briefly, bone marrow was stained with murine macrophage markers including CD11b, F4/80, CD16 (FcγRIII; marker of activated macrophages), CD32 (FcγRII; inhibitory macrophage marker), CD68, and CD64 (FcγRI; marker of activated macrophages). In addition, bone marrow smears were prepared for pathology analysis and stained with F4/80 to quantify macrophages.

[2] = tested on: hematopoietic stem cells (LSK: lineage negative, Sca1+, ckit+); conditions: mice, 8.3-25 mg/kg anti-CD117 and anti-CD47 antibodies, two doses of 50 mg/kg cyclophosphamide, vs vehicle or antibodies alone
Description: In another experiment, immunocompetent mice (C57Bl/6 or Balb/C) were dosed with 8.3-25 mg/kg of anti-CD117 and anti-CD47 antibodies with or without two doses of 50 mg/kg of cyclophosphamide approximately 48 hours apart. Five to seven days after antibody treatment, mouse bone marrow was analyzed by flow cytometry or plated in methocellulose medium to evaluate impacts on the hematopoietic stem cells. […] FIG. 3.

Structure (SMILES): O=P1(N(CCCl)CCCl)NCCCO1 (centres unmarked) [cyclophosphamide]
- increase of macrophage content in the bone marrow ([1]; 1 or 2 doses of 50 or 100 mg/kg, three days after final dose, flow cytometry, FIG. 2A top panel): up to 2.5 fold
- F4/80+ macrophage staining in bone marrow smears (pathology) [1]: increased macrophage staining
- F4/80+ macrophage staining in bone marrow smears (pathology) ([1]; listed as Cyclophosphamide): increase
- macrophage recruitment in bone marrow compared to vehicle ([1]; FIG. 2A top panel): increased macrophage recruitment
- activation status of macrophages recruited to the bone marrow (FcγRI signal) [1]: increased macrophage activation
- activation status of macrophages recruited to the bone marrow (FcγRI signal) ([1]; listed as Cyclophosphamide): enhanced activation status
- depletion of stem cells (LSK) in the bone marrow ([2]; 5-7 days after antibody, FIG. 3 left): enhanced the antibody-mediated depletion
- number of colony forming cells (CFUs) from bone marrow ([2]; methocellulose, FIG. 3 right): reduced the number of colony forming cells
